{
  "source": "paper PMC11547827",
  "about": "“Discovery of Cyclic Peptide Inhibitors Targeted on TNFα-TNFR1 from Computational Design and Bioactivity Verification” (Molecules, 2024)",
  "key": {"[1]": {"biological_target": "T1, hTNFR1 (Homo sapiens, UniProt P19438)", "T1 sequence (P19438 30-455)": "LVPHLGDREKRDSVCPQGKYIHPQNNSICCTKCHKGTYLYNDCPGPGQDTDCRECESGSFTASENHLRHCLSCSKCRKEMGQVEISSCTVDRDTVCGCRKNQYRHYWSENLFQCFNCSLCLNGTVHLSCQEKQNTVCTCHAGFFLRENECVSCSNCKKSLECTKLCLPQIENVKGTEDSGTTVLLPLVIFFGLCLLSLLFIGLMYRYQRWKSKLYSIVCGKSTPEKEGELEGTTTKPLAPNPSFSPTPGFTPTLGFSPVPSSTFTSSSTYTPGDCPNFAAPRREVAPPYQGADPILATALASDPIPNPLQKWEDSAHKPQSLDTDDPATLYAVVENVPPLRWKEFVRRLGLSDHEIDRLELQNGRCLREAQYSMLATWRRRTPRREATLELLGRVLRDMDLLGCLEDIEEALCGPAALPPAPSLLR", "test": "ELISA binding affinity to hTNFR1", "protocol": "The hTNFR1 (100 ng) was coated on a 96-well ELISA plate (BIOFIL, Guangzhou, China) overnight at 4 °C, followed by blocking the plate with 200 μL of 3% skim milk solution in PBST (PBS, 0.05% Tween20) for 2 h at 37 °C. […] After incubating with the cyclic peptides for 2 h at room temperature, […] mAB (Solarbio, Beijing, China) was diluted at 1:500, and was incubated for an additional 2 h at room temperature. Five washes with PBST were carried out between each incubation to remove nonspecific absorbance. After the final wash, the samples were incubated in the dark with freshly prepared TMB Chromogen Solution (Sangon Biotech, Shanghai, China) for 10 min at room temperature to develop the signals. After adding the stop solution (1 M H2SO4), the plates were read at 450 nm on a plate reader. The raw data were processed to calculate the Kd value."}, "[2]": {"tested_on": "TNFα trimer", "settings": "cited from earlier work", "excerpt": "Several potential small molecules of TNFα inhibitors have already been reported. […] Furthermore, through structure-based virtual screening and biological assay, Xie’s group identified two novel antagonists, T1 and R1 (Figure S1A), which could bind to TNFα or TNFR1, with low-micromolar binding affinities to TNFα and TNFR1, respectively ..."}, "[3]": {"biological_target": "TNFα", "settings": "cited from earlier work", "excerpt": "Several potential small molecules of TNFα inhibitors have already been reported."}, "[4]": {"tested_on": "L929 cells", "settings": "α_CC8, 200 μM, 24 h, CCK-8, 450 nm, n = 3", "protocol": "L929 cells were seeded in a 96-well plate at a density of 8000 cells per well and cultured for 24 h under standard conditions. Then, the liquid in the wells was discarded, and 100 µL of medium containing different concentrations of cyclic peptides was added. After incubation for 24 h, the liquid in the well was discarded, and the medium was replaced with CCK-8 working solution (100 μL RPMI 1640 medium containing 5% CCK-8) and incubated in the dark for 2 h. The absorbance of each well at 450 nm was detected with a microplate reader. The same operation was performed with wells not seeded with cells as a blank group to eliminate systematic errors. Cell viability was calculated according to the following formula:(7) Cell viability(%)=(ODtest−ODblank)/(ODcontrol−ODblank)×100%"}, "[5]": {"tested_on": "TNFα-mediated cytotoxicity in L929 cells", "test": "Neutralization of TNFα induced necrosis in L929 cells", "protocol": "L929 cells were seeded at a density of 8000 cells/well in a 96-well plate and incubated for 24 h in RPMI 1640 with 10% FBS at 37 °C. The experiment was divided into a blank group, a control group, a positive control group, and an experimental group. […] Serially diluted α_CC8 was added to cells and incubated at 37 °C, 5% CO2 for 2 h initially, and then 50 μL 10 ng/mL human TNFα was added and incubated overnight (17 h). 1 μg/mL Etanercept was used as a positive control. Subsequently, 100 μL 5% CCK-8 was added per well, followed by incubation of 2 h. The control group consisted of normal cultured cells without TNFα stimulation, while the blank control group contained empty wells without cells. At last, cell viability was confirmed by measuring the absorbance of each well at 450 nm. Cell viability was calculated according to Formula (7). Data was analyzed with SPSSAU (https://spssau.com/, Accessed on 14 August 2023) using the paired t-test to compare the differences between the experimental and control groups."}},
  "note": "“Also recorded” adds a separate entry of the source. Where a SMILES comes first, the peptide text is derived from it. Bridges are numbered along the chain shown (N, C = ends).",
  "data": [
    {"compound": "CC[C@H](C)[C@@H]1NC(=O)[C@H](CCCNC(=N)N)NC(=O)[C@H](CO)NC(=O)[C@H]([C@@H](C)CC)NC(=O)[C@H]([C@@H](C)O)NC(=O)[C@@H](N)CSSC[C@@H](C(=O)O)NC(=O)[C@H](CO)NC(=O)[C@H](CC(C)C)NC(=O)[C@H](CCCNC(=N)N)NC(=O)[C@H](CC(N)=O)NC(=O)[C@H](C(C)C)NC(=O)[C@H](CCCCN)NC(=O)[C@H]([C@@H](C)O)NC(=O)[C@H](CCC(N)=O)NC(=O)[C@H](Cc2ccc(O)cc2)NC(=O)[C@H](CO)NC(=O)[C@H](C(C)C)NC(=O)[C@H](CCCCN)NC1=O", "note": "[L16R] (H-CTISRIKVSYQTKVNRLSC-OH; disulfide 1-19; N-terminus and C-terminus assumed)", "values": [
      {"measurement": "binding to hTNFR1 (in words)", "setting": "[1]", "value": "good binding condition with hTNFR1"}
    ]},
    {"compound": "Cc1cc2occ(CN(C)CCN(C)Cc3cn(-c4cccc(C(F)(F)F)c4)c4ccccc34)c(=O)c2cc1C", "note": "[SPD-304, reference compound]", "values": [
      {"measurement": "effect on TNFα trimer (in words)", "setting": "[2]", "value": "greatly increase the dissociation rate of the TNFα trimer"},
      {"measurement": "Kd", "setting": "[3]; TNFα small molecule antagonist", "value": 5.36, "unit": "µM"}
    ]},
    {"compound": "CC[C@H](C)[C@@H]1NC(=O)[C@H](CCCNC(=N)N)NC(=O)[C@H](CO)NC(=O)[C@H]([C@@H](C)CC)NC(=O)[C@H]([C@@H](C)O)NC(=O)[C@@H](N)CSSC[C@@H](C(=O)O)NC(=O)[C@H](CO)NC(=O)[C@H](CC(C)C)NC(=O)[C@H](CC(C)C)NC(=O)[C@H](CC(N)=O)NC(=O)[C@H](C(C)C)NC(=O)[C@H](CCCCN)NC(=O)[C@H]([C@@H](C)O)NC(=O)[C@H](CCC(N)=O)NC(=O)[C@H](Cc2ccc(O)cc2)NC(=O)[C@H](CO)NC(=O)[C@H](C(C)C)NC(=O)[C@H](C)NC1=O", "note": "[α_CC8] (H-CTISRIAVSYQTKVNLLSC-OH; disulfide 1-19; N-terminus and C-terminus assumed)", "values": [
      {"measurement": "survival rate of L929 cells", "setting": "[4]", "value": "≤ 90", "unit": "%"},
      {"measurement": "inhibition of TNFα-mediated cytotoxicity (in words)", "setting": "[5]; L929 cells", "value": "effectively inhibit the TNFα-mediated cytotoxicity; also recorded: better bioactivity and lower effective concentration than R1_CC4; also recorded: improve cell viability significantly by inhibiting TNFα-mediated necrosis; also recorded: higher biological activity and effective concentration than R1_CC4"},
      {"measurement": "concentration at which survival rate increased significantly", "setting": "[5]; L929 cells, human TNFα 10 ng/mL, 17 h, CCK-8, n = 3", "value": 60, "unit": "µM"},
      {"measurement": "increase of cell survival rate", "setting": "[5]; α_CC8 60 μM, 2 h with cells, then human TNFα 17 h, n = 3", "value": 17.8, "unit": "%"}
    ]},
    {"compound": "Etanercept", "values": [
      {"measurement": "blocking effect compared with the cyclic peptides (in words)", "setting": "[5]; Etanercept 1 μg/mL, positive control, L929 cells", "value": "stronger blocking effect on the formation of TNFα/TNFR1"},
      {"measurement": "TNFα binding (in words)", "setting": "[3]; background statement, no reference given", "value": "strong ability to bind TNFα"}
    ]},
    {"compound": "TNFα", "values": [
      {"measurement": "survival rate of L929 cells after TNFα", "setting": "[5]; TNFα alone, 10 ng/mL, 17 h, average", "value": 42, "unit": "%"}
    ]}
  ]
}
